Experimental data from patent publication US20080119412A1, “Polypeptides for Modulating Binding of Trp Channel Proteins and Trp- Associated Proteins” (NoNO Inc., priority 2003, published 2008).
Residues, ends and D or L forms follow the SMILES beside them. *: point of attachment. Biotin = O=C1N[C@H]2[C@H](CS[C@H]2CCCCC(=O)*)N1

Tests used:
Assay in all cases: G3 assay titration, GST-PDZ fusion / biotinylated peptide
Format in all cases: binding
RIM2 d1 = target: T1, RIM2 d1 (Homo sapiens, UniProt Q9UQ26)
T1 construct: made in house; host or cells: E. coli (DH5alpha, BL21 or JM109)
T1 sequence (Q9UQ26 632-757): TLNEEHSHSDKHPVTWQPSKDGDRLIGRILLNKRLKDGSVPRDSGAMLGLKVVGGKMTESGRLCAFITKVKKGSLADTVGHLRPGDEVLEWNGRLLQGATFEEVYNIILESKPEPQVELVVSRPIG

SITAC-18 d2 = target: T2, SITAC-18 d2 (Homo sapiens, UniProt Q9H190)
T2 construct: made in house; host or cells: E. coli (DH5alpha, BL21 or JM109)
T2 sequence (Q9H190 with tags, fused parts or gaps): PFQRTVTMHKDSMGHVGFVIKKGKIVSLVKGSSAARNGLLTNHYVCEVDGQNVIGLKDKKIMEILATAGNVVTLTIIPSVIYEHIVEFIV

PAR3L d3 = target: T3, PAR3L d3 (Homo sapiens, UniProt Q8TEW8)
T3 construct: made in house; host or cells: E. coli (DH5alpha, BL21 or JM109)
T3 sequence (Q8TEW8 with tags, fused parts or gaps): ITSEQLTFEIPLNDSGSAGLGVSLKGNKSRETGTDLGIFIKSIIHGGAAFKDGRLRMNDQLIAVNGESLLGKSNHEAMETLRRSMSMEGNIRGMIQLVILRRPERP

PAR3 d3 = target: T4, PAR3 d3 (Homo sapiens, UniProt Q8TEW0, R682S)
T4 construct: made in house; host or cells: E. coli (DH5alpha, BL21 or JM109)
T4 sequence (Q8TEW0 with tags, fused parts or gaps R682S): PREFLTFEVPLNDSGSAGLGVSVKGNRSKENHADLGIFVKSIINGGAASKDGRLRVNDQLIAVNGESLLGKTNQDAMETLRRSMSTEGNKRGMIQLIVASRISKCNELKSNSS

LIM Mystique d1 = target: T5, LIM Mystique d1 (Homo sapiens, UniProt Q96JY6)
T5 construct: made in house; host or cells: E. coli (DH5alpha, BL21 or JM109)
T5 sequence (Q96JY6 1-91): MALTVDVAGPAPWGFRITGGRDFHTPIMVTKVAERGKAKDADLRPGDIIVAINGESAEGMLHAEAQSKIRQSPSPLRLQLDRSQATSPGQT

INADL d3 = target: T6, INADL d3 (Homo sapiens, UniProt Q8NI35)
T6 construct: made in house; host or cells: E. coli (DH5alpha, BL21 or JM109)
T6 sequence (Q8NI35 with tags, fused parts or gaps): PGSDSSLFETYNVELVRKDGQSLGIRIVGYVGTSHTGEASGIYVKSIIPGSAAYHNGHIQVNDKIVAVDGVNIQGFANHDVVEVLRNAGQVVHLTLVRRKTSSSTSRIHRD
Procedure, shortened: (§1)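 ELISA with anti-GST-captured GST-PDZ fusions (5 μg/ml), probed by biotinylated Tat-TRPM7 C-terminal peptide precomplexed 20 min with HRP-streptavidin. Binding ran 30 min at room temperature; TMB read at 450 nm. Peptide was titrated from 0.002 to 2 μM and data fitted to a binding equation.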

MAST2 d1 = target: T7, MAST2 d1 (Homo sapiens, UniProt Q6P0Q8)
T7 construct: made in house; host or cells: E. coli (DH5alpha, BL21 or JM109)
T7 sequence (Q6P0Q8 with tags, fused parts or gaps): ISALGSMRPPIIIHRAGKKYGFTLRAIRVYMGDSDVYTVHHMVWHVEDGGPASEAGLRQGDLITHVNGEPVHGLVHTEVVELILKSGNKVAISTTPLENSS

ZO-1 d2 = target: T8, ZO-1 d2 (Homo sapiens, UniProt Q07157, DEL264-264)
T8 construct: made in house; host or cells: E. coli (DH5alpha, BL21 or JM109)
T8 sequence (Q07157 with tags, fused parts or gaps DEL264-264): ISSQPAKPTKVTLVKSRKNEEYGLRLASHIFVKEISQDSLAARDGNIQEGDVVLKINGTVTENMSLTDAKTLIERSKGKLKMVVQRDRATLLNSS
Procedure, shortened: as §1

Compound: CSCC[C@H](NC(=O)[C@H](CC(C)C)NC(=O)[C@H](CCCNC(=N)N)NC(=O)[C@@H](NC(=O)[C@H](CO)NC(=O)[C@H](CC(N)=O)NC(=O)[C@@H](NC(=O)[C@H](CO)NC(=O)[C@H](CCCNC(=N)N)NC(=O)[C@H](CCCNC(=N)N)NC(=O)[C@H](CCCNC(=N)N)NC(=O)[C@H](CCC(N)=O)NC(=O)[C@H](CCCNC(=N)N)NC(=O)[C@H](CCCNC(=N)N)NC(=O)[C@H](CCCCN)NC(=O)[C@H](CCCCN)NC(=O)[C@H](CCCNC(=N)N)NC(=O)CNC(=O)[C@H](Cc1ccc(O)cc1)NC(=O)CCCC[C@@H]1SC[C@@H]2NC(=O)N[C@@H]21)[C@@H](C)O)C(C)C)C(=O)N[C@@H](CC(C)C)C(=O)O [Tat-TRPM7 peptide] (Biotin-YGRKKRRQRRRSTNSVRLML-OH)
- EC50 (RIM2 d1): 47 nM
- EC50 (SITAC-18 d2): 90 nM
- EC50 (PAR3L d3): 100 nM
- EC50 (PAR3 d3): 18 nM
- EC50 (LIM Mystique d1): 90 nM
- EC50 (INADL d3): 120 nM
- EC50 (MAST2 d1): 110 nM
- EC50 (ZO-1 d2): 33 nM
